Values joined by “and” are separate entries in the source; they are usually repeats but may differ in a detail not shown here. Identical values can stand only once.
Assay: xn = mol fraction of the nth substance listed

OC[C@@H](O)[C@@H](O[C@H]1O[C@H](CO)[C@@H](O)[C@H](O)[C@H]1O)[C@H](O)[C@@H](O)CO + O
Settings	viscosity
293.15 K, 100 kPa, x1 = 0.06986	60.3 mPa·s
293.15 K, 101.3 kPa, x1 = 0.004	1.19 mPa·s
293.15 K, 101.3 kPa, x1 = 0.007	1.45 mPa·s
293.15 K, 101.3 kPa, x1 = 0.01	1.77 mPa·s
293.15 K, 101.3 kPa, x1 = 0.018	2.6 mPa·s
298.15 K, 100 kPa, x1 = 0.07553	62 mPa·s
303.15 K, 100 kPa, x1 = 0.08206	64 mPa·s
303.15 K, 101 kPa, x1 = 0.003592	0.9493 mPa·s
303.15 K, 101.3 kPa, x1 = 0.004	0.92 mPa·s
303.15 K, 101.3 kPa, x1 = 0.007	1.11 mPa·s
303.15 K, 101.3 kPa, x1 = 0.01	1.34 mPa·s
303.15 K, 101.3 kPa, x1 = 0.018	1.93 mPa·s
308.15 K, 100 kPa, x1 = 0.08946	67 mPa·s
313.15 K, 100 kPa, x1 = 0.09729	68 mPa·s
313.15 K, 101.3 kPa, x1 = 0.004	0.75 mPa·s
313.15 K, 101.3 kPa, x1 = 0.007	0.89 mPa·s
313.15 K, 101.3 kPa, x1 = 0.01	1.05 mPa·s and 1.27 mPa·s
313.15 K, 101.3 kPa, x1 = 0.018	1.49 mPa·s
318.15 K, 100 kPa, x1 = 0.1055	76 mPa·s
323.15 K, 100 kPa, x1 = 0.1147	79 mPa·s
323.15 K, 101 kPa, x1 = 0.003592	0.6401 mPa·s
323.15 K, 101 kPa, x1 = 0.007153	0.7457 mPa·s
323.15 K, 101.3 kPa, x1 = 0.004	0.62 mPa·s
323.15 K, 101.3 kPa, x1 = 0.007	0.73 mPa·s
323.15 K, 101.3 kPa, x1 = 0.01	0.86 mPa·s and 1.05 mPa·s
323.15 K, 101.3 kPa, x1 = 0.018	1.19 mPa·s

CC12CCC(CC1)C(C)(C)O2 + Cc1ccc(O)cc1
viscosity [mPa·s], 101 kPa
Settings	x1 = 0.065	x1 = 0.1353	x1 = 0.2115	x1 = 0.2943	x1 = 0.3849	x1 = 0.4841	x1 = 0.5935	x1 = 0.7145	x1 = 0.8492
303.15 K	10.05	10.4	10.3	9.855	8.969	7.588	6	4.552	3.36
308.15 K	8.061	8.368	8.359	8.056	7.332	6.325	5.03	3.799	2.854
313.15 K	6.612	6.841	6.808	6.617	6.12	5.364	4.313	3.244	2.467

C1C[C@@H]2[C@H]3CC[C@H](C3)[C@@H]2C1 + CC(C)OC(C)C
viscosity [mPa·s], 101.33 kPa
Settings	x2 = 0.1	x2 = 0.2043	x2 = 0.3168	x2 = 0.4	x2 = 0.4997	x2 = 0.5937	x2 = 0.703	x2 = 0.8066	x2 = 0.9085
293.15 K	2.279	1.725	1.309	1.074	0.865	0.719	0.592	0.493	0.412
298.15 K	2.062	1.572	1.206	0.995	0.802	0.666	0.556	0.473	0.391
303.15 K	1.88	1.441	1.116	0.926	0.76	0.631	0.532	0.454	0.376
308.15 K	1.712	1.324	1.026	0.861	0.706	0.593	0.497	0.426	0.357
313.15 K	1.573	1.226	0.95	0.799	0.659	0.558	0.469	0.402	0.338

CCCOC(=O)CC + CCCCCCCCCCCCCC
298.15 K, 101.33 kPa
Settings	viscosity [mPa·s]
x2 = 0.0774	0.704
x2 = 0.1347	0.757
x2 = 0.2041	0.828
x2 = 0.2829	0.915
x2 = 0.3321	0.972
x2 = 0.4571	1.13
x2 = 0.5528	1.263
x2 = 0.6895	1.473
x2 = 0.8219	1.706
x2 = 0.9084	1.878

CC12CCC(CC1)C(C)(C)O2 + Cc1cccc(O)c1
viscosity [mPa·s], 101 kPa
Settings	x1 = 0.065	x1 = 0.1352	x1 = 0.2114	x1 = 0.2943	x1 = 0.3848	x1 = 0.4841	x1 = 0.5934	x1 = 0.7145	x1 = 0.8492
303.15 K	10.48	10.69	10.47	9.802	8.746	7.564	6.28	4.91	3.559
308.15 K	8.331	8.539	8.426	7.994	7.155	6.222	5.16	4.043	3.002
313.15 K	6.756	6.947	6.878	6.474	5.892	5.161	4.295	3.348	2.505

C1C[C@@H]2[C@H]3CC[C@H](C3)[C@@H]2C1 + CC(C)CO
viscosity [mPa·s], 100 kPa
Settings	x1 = 0.1002	x1 = 0.2	x1 = 0.3002	x1 = 0.4003	x1 = 0.4998	x1 = 0.6003	x1 = 0.7002	x1 = 0.7994	x1 = 0.8979
293.15 K	3.668	3.397	3.217	3.04	2.883	2.814	2.769	2.78	2.848
298.15 K	3.135	2.923	2.772	2.644	2.541	2.489	2.47	2.493	2.563
303.15 K	2.692	2.526	2.408	2.318	2.247	2.219	2.219	2.249	2.323
308.15 K	2.325	2.196	2.108	2.044	1.998	1.99	2.003	2.037	2.113
313.15 K	2.02	1.92	1.856	1.814	1.787	1.79	1.814	1.854	1.929
318.15 K	1.764	1.689	1.645	1.616	1.607	1.618	1.646	1.695	1.77
323.15 K	1.551	1.494	1.465	1.448	1.452	1.471	1.507	1.555	1.627

CC12CCC(CC1)C(C)(C)O2 + CCCCCC
298.15 K, 101.33 kPa
Settings	viscosity [mPa·s]
x2 = 0.0339	2.317
x2 = 0.0677	2.11
x2 = 0.1616	1.642
x2 = 0.2491	1.325
x2 = 0.3454	1.063
x2 = 0.4734	0.8
x2 = 0.6205	0.593
x2 = 0.7181	0.491
x2 = 0.8281	0.4
x2 = 0.8953	0.359
x2 = 0.9363	0.33

CCC(=O)O + C1COCO1
298.15 K, 101 kPa
Settings	viscosity [mPa·s]
x2 = 0.1	1.018
x2 = 0.2	1.003
x2 = 0.3	0.9794
x2 = 0.4	0.9457
x2 = 0.5	0.9011
x2 = 0.6	0.8454
x2 = 0.7	0.788
x2 = 0.8	0.7223
x2 = 0.9	0.6544

CCCCCCCCCCCCCC[P+](CCCCCC)(CCCCCC)CCCCCC.c1c[n-]nn1 + O=C=O
Settings	viscosity [mPa·s]
298.15 K, 100 kPa, x2 = 0.38	419

OC(O)C(Cl)(Cl)Cl + O
293.15 K, 101 kPa
Settings	viscosity [mPa·s]
x1 = 0.026	1.276
x1 = 0.0441	1.631
x1 = 0.06	1.841
